According to patent US20030203963A1, “Antimicrobial agent” (priority 2001, published 2003):

Legend:
[1] = system: S. carisbergensis CRA6413; experiment: Bioscreen growth inhibition test; type: cell-based, Saccharomyces carlsbergensis; details: APP 213, BS010420, 72 h/25° C.
Experimental: For broth cultures and Bioscreen testing most bacteria were grown in Brain Heart Infusion (BHI, Oxoid, pH 7.4). Lactobacillus sake A10 was grown in de Man, Rogosa, Sharpe medium ([…], Oxoid). Yeasts were grown in Sabouraud Liquid medium (SLM, Oxoid). Most bacteria were cultured at 30° C. Lactic acid bacteria were grown on solid medium in enriched CO2 atmosphere. Clostridium species were grown in Reinforced Clostridial Medium (RCM) at 37° C. anaerobically. Brochothrix thermosphacta fungi and yeasts were grown at 25° C. Fungi were cultured on Malt Extract Agar (MEA, Oxoid).
An automated Microbiology Reader Bioscreen C was used to measure growth curves of the strains in the presence and absence of APP. The Bioscreen C measures the development of turbidity (i.e. growth) kinetically by vertical photometry in 200 wells of a honeycomb microtitre plate, simultaneously. The system consists of a Bioscreen C analyser, which is an incubator and measurement unit, integrated with a PC, software (BioLink v 5.30), printer and a ‘Honeycomb 2’ cuvette multiwell plate. Growth curve data can be analysed within the BioLink software or exported to programs such as Excel.
Broth culture media were dispensed in 270 μl volumes into the wells as directed. […] (depending on the micro-organism under investigation) with readings taken every 20 minutes after the trays were shaken. […]

[2] = system: Br. thermosphacta CRA78884; experiment: Test in cooked sausage meat slurry; type: cell-based, Brochothrix thermosphacta; details: 500 ppm; cooked sausage meat slurry at 8° C., pH 6.2, TSM010605
Excerpt: 500 g of bologna sausage meat mixture was mixed with 500 g Brain Heart Infusion broth (BHIB) to make a homogeneous slurry. The bologna sausage meat mix comprised (g per kg): lean beef 320; lean pork 202; lard 250; water 40; glucose 5; starch 155; spice mix 3.75; sodium glutamate 0.5; sodium erythorbate 0.545; sodium di-phosphate 3; NaCl 20; sodium nitrite 0.15. 200 g samples of the meat slurry were autoclaved. While the meat was still warm it was re-mixed thoroughly. When the meat had cooled it was inoculated with 2 ml of 10^5 cfu/ml spore or cell suspension, and re-mixed again. […] The meat slurry was again shaken thoroughly to ensure even mixing, an initial viable count was taken and the samples incubated at 8° C. Samples were taken at twice-weekly intervals. The pH of the sausage meat slurry was 6.2.

[3] = system: Listeria innocua; experiment: Preliminary growth inhibition test; type: cell-based; details: 37° C., 20 hours
Excerpt: (§1) Antimicrobial activity was investigated using Salmonella Typhimurium and Listeria innocua.

[4] = system: Salmonella Typhimurium DSMZ 554; experiment: Preliminary growth inhibition test; type: cell-based; details: 37° C., 24 hour
Excerpt: as §1

[5] = system: L. monocytogenes; experiment: Test in milk; type: cell-based, Listeria monocytogenes; details: 2000 ppm, TMGB010605
Experimental: 8.9 ml samples of UHT milk containing 0.5% glucose and the indicator bromocresol purple (0.01%) were prepared and sterilised by autoclaving. The pH before APP addition was pH 6.65. Appropriate stock solutions of APP batch number APP20010215 (at 138 mg/ml) were prepared and filter sterilised. 1 ml of each was added to the milk to prepare tests containing 0, 1000 and 2000 ppm APP. Tests were then inoculated with 100 μl of diluted overnight broth cultures or spore suspensions to give a final inoculum level of ca. 10^3 cfu/ml. These and uninoculated tests were incubated at 20 and 8° C. and examined daily for visible changes compared to uninoculated control.

## O=C1CC(CO)OC=C1O (centres unmarked) [APP, Ascopyrone P]
[1]
  APP level causing significant inhibition: Enhanced growth
  APP level causing total inhibition: >4000
[2]
  Effect on growth: No significant effect with 500 and 100 ppm
[3]; 500 μg/ml APP, 10e3 cfu/ml
  Inhibition of bacterial growth: slight inhibition
[3]; 500 μg/ml APP, 10e5 cfu/ml
  Inhibition of bacterial growth: almost no inhibition
[3]; 1000 μg/ml APP, 10e3 cfu/ml
  Inhibition of bacterial growth: intermediate inhibition
[3]; 1000 μg/ml APP, 10e5 cfu/ml
  Inhibition of bacterial growth: slight inhibition
[3]; 2000 μg/ml APP, 10e3 cfu/ml
  Inhibition of bacterial growth: almost complete inhibition
[3]; 2000 μg/ml APP, 10e5 cfu/ml
  Inhibition of bacterial growth: intermediate inhibition
[3]; 10e3 or 10e5 cfu/ml
  Inhibitory effect: satisfactory inhibitory effect
[4]; 500 μg/ml APP
  Inhibition of bacterial growth: Intermediate inhibition
[4]; 1000 μg/ml APP
  Inhibition of bacterial growth: strong inhibition
[4]; 2000 μg/ml APP, 10e3 and 10e5 cfu/ml
  Inhibition of bacterial growth: complete inhibition
[4]; 4000 μg/ml APP, 10e3 and 10e5 cfu/ml
  Inhibition of bacterial growth: complete inhibition
[4]; 10e3 or 10e5 cfu/ml
  Inhibitory effect: satisfactory inhibitory effect
[5]; milk at 8° C.
  Control of growth: No control observed
[5]; milk at 20° C.
  Control of growth: No control observed
